# Reference: patent US20100248965A1, “HERBICIDAL COMBINATION” (Bayer CropScience AG, priority 2007, published 2010)
# Values joined by “and” are separate entries in the source; they are usually repeats but may differ in a detail not shown here. Equal entries are not always repeated.
# Legend:
# Assay type in all cases: in vivo
# Polygonum convolvulus = test: Post-emergence action against weeds (greenhouse, visual scoring): Polygonum convolvulus; details: scored 11 days after application
# Protocol: (§1) Seeds or rhizome pieces of monocotyledonous and dicotyledonous weeds were placed in sandy loam soil in plastic pots, covered with soil and cultivated in a greenhouse under good growth conditions. Three weeks after sowing, the test plants were treated at the 2- to 4-leaf stage. The compounds according to the invention, formulated as wettable powders or as emulsion concentrates, were sprayed onto the green parts of the plants in various dosages at a water application rate of 100 to 800 l/ha (converted).
# (§2) Scoring was carried out 11 days after the application of the sprays. In the case of the combination with B7-16 (table 1-15), the weed was Polygonum spp. and scoring was carried out 20 days after application.
# (§3) The control of the weed was scored according to the scheme below.
# Veronica persica = test: Post-emergence action against weeds (greenhouse, visual scoring): Veronica persica; details: scored 10 days after application
# Protocol: as §1, with “(converted). After the test plants had been left to stand in the greenhouse for 10 to 28 days under optimum growth conditions, the effect of the preparations was scored visually in comparison to untreated controls.” for “(converted).”
# In an exemplary manner, tables 2-1 to 2-4 below show the improved control of the weed Veronica persica by application of the herbicide combinations according to the invention using the combination of the compound A-2 (sodium salt of 2-iodo-N-[(4-methoxy-6-methyl-1,3,5-triazin-2-yl)carbamoyl]benzenesulfonamide) and selected herbicides from group B, i.e. the herbicides amidosulfuron (=B7-1), ethoxysulfuron (=B7-9), flucarbazone-sodium (B8-1), and sulfosulfuran (B7-28), as an example.
# Scoring was carried out 10 days after the application of the sprays according to the scheme below: […]
# Polygonum spp. = test: Post-emergence action against weeds (greenhouse, visual scoring): Polygonum spp.; details: scored 20 days after application
# Protocol: as §1, §2, §3
# [1] = 2.5 g of ai/ha, 0%=no control, 100%=complete control
compound,measurement,setting,value
"COc1cc(OC)n2nc(NS(=O)(=O)c3c(C(F)(F)F)ccnc3OC)nc2n1 [Compound B9-7, pyroxsulam]",Polygonum convolvulus Control in %,Polygonum convolvulus; [1],75%
"COC(=O)c1csc(C)c1S(=O)(=O)NC(=O)n1nc(OC)n(C)c1=O [Compound B8-3, thiencarbazone-methyl]",Polygonum convolvulus Control in %,Polygonum convolvulus; 1 g of ai/ha,50%
"COc1nc(NC(=O)NS(=O)(=O)c2ccccc2C(F)(F)F)nc(C(F)(F)F)n1 [Compound B7-34, tritosulfuron]",Polygonum convolvulus Control in %,Polygonum convolvulus; 10 g of ai/ha,58%
"COC(=O)c1sccc1S(=O)(=O)NC(=O)Nc1nc(C)nc(OC)n1 [Compound B7-29, thifensulfuron-methyl]",Polygonum convolvulus Control in %,Polygonum convolvulus; 7.5 g of ai/ha,87%
"COc1ncc(F)c2nc(S(=O)(=O)Nc3c(F)cccc3F)nn12 [Compound B9-3, florasulam]",Polygonum convolvulus Control in %,Polygonum convolvulus; [1],73%
"COC(=O)c1ccccc1S(=O)(=O)NC(=O)Nc1nc(C)nc(OC)n1 [Compound B7-18, metsulfuron-methyl]",Polygonum convolvulus Control in %,Polygonum convolvulus; [1],70%
"CCOC(=O)Nc1cccc(OC(=O)Nc2ccccc2)c1 [Compound B5-5, desmedipham]",Polygonum convolvulus Control in %,Polygonum convolvulus; 50 g of ai/ha,28%
"COc1cc(OC)nc(NC(=O)NS(=O)(=O)N(C)S(C)(=O)=O)n1 [Compound B7-1, amidosulfuron]",Veronica persica Control in %,Veronica persica; 5 g of ai/ha,0%
"COC(=O)c1ccc(I)cc1S(=O)(=O)[N-]C(=O)Nc1nc(C)nc(OC)n1.[Na+] [Compound B7-16, iodosulfuron-methyl-sodium]",Polygonum spp. Control in %,Polygonum spp.; 2 g of ai/ha,73%
"sodium salt of 2-iodo-N-[(4-methoxy-6-methyl-1,3,5-triazin-2-yl)carbamoyl]benzenesulfonamide [Compound A-2]",Polygonum convolvulus Control in %,Polygonum convolvulus; [1],10% and 0%
same,Polygonum spp. Control in %,Polygonum spp.; 2.5 g of ai/ha,0%
same,Veronica persica Control in %,"Veronica persica; 2.5 g of ai/ha, 0%=No control, 100%=Complete control",10% and 0%
"CCCOc1nn(C(=O)[N-]S(=O)(=O)c2ccccc2C(=O)OC)c(=O)n1C.[Na+] [Compound B8-2, propoxycarbazone-sodium]",Polygonum convolvulus Control in %,Polygonum convolvulus; 10 g of ai/ha,38%
"COC(=O)c1ccccc1S(=O)(=O)NC(=O)N(C)c1nc(C)nc(OC)n1 [Compound B7-31, tribenuron-methyl]",Polygonum convolvulus Control in %,Polygonum convolvulus; 10 g of ai/ha,80%
"COC(=O)c1ccc(CNS(C)(=O)=O)cc1S(=O)(=O)NC(=O)Nc1nc(OC)cc(OC)n1 [Compound B7-17, mesosulfuron-methyl]",Polygonum convolvulus Control in %,Polygonum convolvulus; 5 g of ai/ha,20%
"CCS(=O)(=O)c1nc2ccccn2c1S(=O)(=O)NC(=O)Nc1nc(OC)cc(OC)n1 [Compound B7-28, sulfosulfuron]",Polygonum convolvulus Control in %,Polygonum convolvulus; 7.5 g of ai/ha,78%
same,Veronica persica Control in %,Veronica persica; 7.5 g of ai/ha,30%
"COc1cc(OC)nc(NC(=O)NS(=O)(=O)c2cc(NC=O)ccc2C(=O)N(C)C)n1 [Compound B7-13, foramsulfuron]",Polygonum convolvulus Control in %,Polygonum convolvulus; 10 g of ai/ha,15%
CCCc1ccc2nc(Cl)c(S(=O)(=O)NC(=O)Nc3nc(OC)cc(OC)n3)n2n1 [Compound B7-38],Polygonum convolvulus Control in %,Polygonum convolvulus; 30 g of ai/ha,0%
"COc1nn(C(=O)[N-]S(=O)(=O)c2ccccc2OC(F)(F)F)c(=O)n1C.[Na+] [Compound B8-1, flucarbazone-sodium]",Polygonum convolvulus Control in %,Polygonum convolvulus; 10 g of ai/ha,55%
same,Veronica persica Control in %,Veronica persica; 10 g of ai/ha,15%
"CCOc1ccccc1OS(=O)(=O)NC(=O)Nc1nc(OC)cc(OC)n1 [Compound B7-9, ethoxysulfuron]",Veronica persica Control in %,Veronica persica; 5 g of ai/ha,8%
